Experimental findings from patent US20250281449A1, “NITROGEN-CONTAINING ANALOGS OF SALINOMYCIN FOR USE IN MULTIPLE MYELOMA (MM)” (Centre National de la Recherche Scientifique, priority 2021, published 2025) are described below.

Entries after “also recorded” stand apart in the source; their conditions may differ.

What all share (format): cell-based, human
One test concerns MM cell lines. Briefly: Cell growth inhibition in panel of MM cell lines. The note with it: 96H. As to the method:
The panel of 17 HMCL cell lines were incubated with increasing concentrations of Ironomycin (A), AM23 (B) or vehicle for 96H.
(§1) HMCL cell lines were cultured for 4 days in 96-well flat-bottom microtiter plates in RPMI 1640 medium or DMEM medium, 10% or 20% FCS (control medium) in the presence of various compounds. The number of viable cells in culture was determined using the Cell Titer-Glo Luminescent Cell Viability Assay from Promega, Madison, WI, USA using a Centro LB 960 luminometer (Berthold Technologies, Bad Wildbad, Germany).
This test is based on quantitation of the intracellular ATP present, which signals the presence of metabolically active cells. Data are expressed as the mean percentage of six replicates, normalized to the untreated control.
The therapeutic interest of iron metabolism inhibitors AM5 (Ironomycin) and AM23 was further investigated using large collection of 18 MM cell lines (Moreaux J et al. Haematologica 2011; Vikova V et al. Theranostics 2019). The IC50 of Ironomycin and AM23 respectively are illustrated in the Table 5 hereunder: […]

The next test has as its system Phospho-H2A.X (S139). Briefly: DNA damage response, Phospho-H2A.X (S139) western blot. The note with it: IC50 and 200 nM, 24H. As to the method:
Cells were treated with iron chelators (80 μM Deferasirox), and Ironomycin (IC50 and 200 nM) during 24H. Protein levels of Phospho-H2A.X (S139) were analyzed by western blot and normalized by the histone 3 protein level.
(§2) The total cell lysates were obtained with RIPA 1× lysis buffer (#9806, Cell Signaling®) according with the supplier recommendations.
(§3) Protein lysates migrate on 10% polyacrylamide gel (NP-0301, Novex, Life Technologies®), in MOPS 1× running buffer (NP0001, Novex, Life Technologies®) or MES 1× running buffer NP-0002, Novex, Life Technologies®) and proteins are transferred to nitrocellulose membrane (1B301001, I-Blot Transfert Starck, NuPAGE, Life Technologies®). The primary antibodies mouse-anti-phospho-Histone H2A.X (Ser139) clone JBW301 ( 1/1000, Merck Millipore), anti-H3K36me3 (#ab9050, abcam®), anti-H3K27me3 (#9733, Cell Signaling®), anti-MMSET (#65127, Cell Signaling® et ab75359, abcam), anti-MYC (#5605, Cell Signaling®) were incubated in TBS-Tween 20 0.1% (Tris-Buffered Saline, pH 7.4) with 5% non-fat milk or Bovine serum albumin (Sigma-Aldrich, A7906). Protein levels are objectified by labeling with an anti-α-tubulin mouse monoclonal antibody (Sigma, T9026, St Louis, MO, USA 1/1000) or anti-Histone 3 (ab18521, abcam). […] Quantification of protein levels was performed with Image J® software (National Institutes of Health, Bethesda, MD, USA).
In general terms: In western blotting, separated proteins are transferred to a membrane and probed.

The subject of test [1] is MMSET (isoforms I and II). As to the kind of experiment: Western blot of MMSET protein level. The note with it: MM cell lines with t(4; 14) translocation, 24H. As to the method: (§4) Cells were treated with iron chelators (80 μM Deferasirox), and Ironomycin (IC50 and 200 nM) during 24H. Protein levels of MMSET (isoforms I and II), MYC, H3K36me3 and H3K27me3 were analyzed by western blot. MMSET (isoforms I and II) and MYC signal were normalized by α-tubulin protein level, H3K36me3 and H3K27me3 signal were normalized by total histone 3 protein level.
as §2
as §3, with “A7906).” for “A7906). Protein levels are objectified by labeling with an anti-α-tubulin mouse monoclonal antibody (Sigma, T9026, St Louis, MO, USA 1/1000) or anti-Histone 3 (ab18521, abcam).”

The subject of a further test is H3K36me3. Briefly: Western blot of histone methylation. The conditions noted are these: 24H. The protocol:
as §4, §2
as §3, with “A7906).” for “A7906). Protein levels are objectified by labeling with an anti-α-tubulin mouse monoclonal antibody (Sigma, T9026, St Louis, MO, USA 1/1000) or anti-Histone 3 (ab18521, abcam).”

A further test relates to primary MM cells. Briefly: Assay on primary MM cells of patients (flow cytometry). The note with it: n=5, with IL-6. The protocol:
Primary MM cells were treated with Ironomycin (A) or AM-23 (B) and incubated during 96H with IL-6. The toxicity on MM cells and non-MM cells was analyzed by flow cytometry and expressed in % of control.
Bone marrow samples were collected after patients' written informed consent in accordance with the Declaration of Helsinki and institutional research board approval from Montpellier University hospital. Cells are obtained from […] of 5 patients with MM. Cells are obtained by density gradient separation and qualified by Flow cytometry.
Cells are cultured in Gibco® RPMI-1640 (Glutamax) medium (#6187-010) with 10% FBS at a density of 0.5×10^6 Cell/mL with 2 ng/mL of interleukin-6. Cells are seeded 24H after thawing and treated with various compounds during 72H.
Total cells were counted with trypan blue and stained with the panel CD38-APC, CD138-PE (Beckman coulter) and analyzed by flow cytometry (Fortessa cytometer, BD Pharmigen). Tumorous MM cells were gated on CD38+ and CD138+.

A further test concerns XG-7 cells. As to the kind of experiment: Drug combination concentration matrix, viability by ATP quantification, Bliss synergy. As to the method: XG-7 or XG2 WT (XG2 neg) or XG2 melphalan resistant (XG2 Melph R) cell lines were respectively treated with increasing concentrations of ironomycin combined with melphalan during 96 h and cell viability was tested by ATP quantification to obtain the viability matrix. The synergy matrix was calculated as described in Material and Methods.
XG-7cells were treated with increasing concentrations of ironomycin combined with lenalidomide during 96 h and cell viability was tested by ATP quantification to obtain the viability matrix. The synergy matrix was calculated as described in Material and Methods.
XG-7cells were treated with increasing concentrations of ironomycin combined with pomalidomide during 96 h and cell viability was tested by ATP quantification to obtain the viability matrix. The synergy matrix was calculated as described in Material and Methods.
XG-7cells were treated with increasing concentrations of ironomycin combined with carfilzomib during 96 h and cell viability was tested by ATP quantification to obtain the viability matrix. The synergy matrix was calculated as described in Material and Methods.
XG-7cells were treated with increasing concentrations of ironomycin combined with AZD-5991 during 96 h and cell viability was tested by ATP quantification to obtain the viability matrix. The synergy matrix was calculated as described in Material and Methods
as §1
The interaction between the drugs tested in vitro was investigated with a concentration matrix test, in which increasing concentration of each single drug were assessed with all possible combinations of the other drugs. For each combination, the percentage of expected growing cells in the case of effect independence was calculated according to the Bliss equation (Combes et al., 2019): […]
where fuC is the expected fraction of cells unaffected by the drug combination in the case of effect independence, and fuA and fuB are the fractions of cells unaffected by treatment A and B, respectively. The difference between the fraction of living cells in the cytotoxicity test and the fuC value was considered as an estimation of the interaction effect, with […]. Synergy matrix was built with the R package “SynergyFinder”.

In the case of `C#CCN[C@@H]1C=C[C@]2(O[C@H]([C@@H](CC)C(=O)[C@@H](C)[C@@H](O)[C@H](C)[C@@H]3O[C@@H]([C@@H](CC)C(=O)O)CC[C@@H]3C)[C@@H](C)C[C@H]2C)O[C@@]12CC[C@@](C)([C@H]1CC[C@](O)(CC)[C@H](C)O1)O2` [Ironomycin], the “cell growth inhibition / toxicity on MM cell lines” value in the test on MM cell lines is recorded as “significant cell growth inhibition; also recorded: kill MM cells with nanomolar concentration”. Moreover, the “DNA double strand breaks” value in the test with Phospho-H2A.X (S139) is recorded as “DNA double strand breaks”. In addition, the “expression of MMSET” value in test [1] was “downregulates the expression of MMSET”. In the test with H3K36me3, the H3K36 methylation entry is listed as “significant deregulation of H3K36 methylation”. Moreover, in the test on primary MM cells, the “toxicity on primary MM cells of patients” value is “validated the therapeutic interest”. For the same compound, in the test with XG-7 cells (XG-7, 96 h), the “interaction effect, combined with AZD5991” value is “additive effect”; the “interaction effect, combined with Lenalidomide” value is “synergy”; the “interaction effect, combined with Pomalidomide” value is reported as “synergy”; the “interaction effect, combined with carfilzomib” value is “additive effect”. Moreover, in the test with XG-7 cells (XG-7 or XG2 WT, 96 h), the “interaction effect, combined with melphalan” value is reported as “synergistic effect”.
